# pIC50: −log10 of the molar value. Calls of active or inactive are those of the source. The calls are words filed in the database; no cut-off is given here.
# Tests used:
# HOS-TE85 [1] = experiment: Antiproliferative activity against human MNNG/HOS cells assessed as inhibition of cell growth incubated for 72 hrs by CCK8 assay; assay type: functional, cell-based; details: HOS-TE85, 72 h
# [2] = Metabolic stability in human liver microsomes assessed as half-life at 0.1 uM preincubated for 10 mins followed by NADPH addition and measured upto 60 mins by LC-MS/MS analysis; assay type: ADME, Microsome; details: time < 70 min
# [3] = Metabolic stability in human liver microsomes assessed as bioavailability at 0.1 uM preincubated for 10 mins followed by NADPH addition and measured upto 60 mins by LC-MS/MS analysis; assay type: ADME, Microsome; details: time < 70 min
# [4] = Metabolic stability in mouse liver microsomes assessed as half-life at 0.1 uM preincubated for 10 mins followed by NADPH addition and measured upto 60 mins by LC-MS/MS analysis; assay type: ADME, Microsome; details: time < 70 min
# 143B = experiment: Antiproliferative activity against human 143B cells assessed as inhibition of cell growth incubated for 72 hrs by CCK8 assay; assay type: functional, cell-based
# SAOS-2 = experiment: Antiproliferative activity against human SAOS-2 cells assessed as inhibition of cell growth incubated for 72 hrs by CCK8 assay; assay type: functional, cell-based; details: SAOS-2, 72 h
# SJSA-1 = experiment: Antiproliferative activity against human SJSA-1 cells assessed as inhibition of cell growth incubated for 72 hrs by CCK8 assay; assay type: functional, cell-based; details: SJSA-1, 72 h
# MGC-803 = experiment: Antiproliferative activity against human MGC-803 cells assessed as inhibition of cell growth incubated for 72 hrs by CCK8 assay; assay type: functional, cell-based; details: MGC-803, 72 h
# MG-63 = experiment: Antiproliferative activity against human MG-63 cells assessed as inhibition of cell growth incubated for 72 hrs by CCK8 assay; assay type: functional, cell-based; details: MG-63, 72 h
# A549 = experiment: Antiproliferative activity against human A549 cells assessed as inhibition of cell growth incubated for 72 hrs by CCK8 assay; assay type: functional, cell-based; details: A549, 72 h
# [5] = Antiproliferative activity against BMSC (unknown origin) assessed as inhibition of cell growth incubated for 72 hrs by CCK8 assay; assay type: functional, cell-based
# PC-3 = experiment: Antiproliferative activity against human PC-3 cells assessed as inhibition of cell growth incubated for 72 hrs by CCK8 assay; assay type: functional, cell-based; details: PC-3, 72 h
# HOS-TE85 [6] = experiment: Potency index, ratio of sorafenib IC50 to test compound IC50 for antiproliferative activity against human MNNG/HOS cells; assay type: functional
# HOS-TE85 [7] = experiment: Inhibition of colony formation in human MNNG/HOS cells incubated for 10 days by crystal violet staining based light microscopic analysis; assay type: functional, cell-based; details: dose 0.1-0.4 µM, time 10.0 day
# HOS-TE85 [8] = experiment: Inhibition of cell migration in human MNNG/HOS cells assessed as reduction in closure rate at 0.2 uM incubated for 24 hrs by wound healing assay; assay type: functional, cell-based
# [9] = Clearance in male ICR mouse at 12.5 mg/kg, iv measured after 24 hrs by LC-MS/MS analysis; assay type: ADME, organism-based; details: in vivo
# [10] = Cmax in male ICR mouse at 12.5 mg/kg, iv measured after 24 hrs by LC-MS/MS analysis; assay type: ADME, organism-based; details: in vivo
# [11] = Half-life in male ICR mouse at 12.5 mg/kg, iv measured after 24 hrs by LC-MS/MS analysis; assay type: ADME, organism-based; details: in vivo
# [12] = AUC (0 to infinity) in male ICR mouse at 12.5 mg/kg, iv measured after 24 hrs by LC-MS/MS analysis; assay type: ADME, organism-based; details: in vivo
# [13] = Cmax in male ICR mouse at 62.5 mg/kg, ip measured after 24 hrs by LC-MS/MS analysis; assay type: ADME, organism-based; details: in vivo
# [14] = Half-life in male ICR mouse at 62.5 mg/kg, ip measured after 24 hrs by LC-MS/MS analysis; assay type: ADME, organism-based; details: in vivo
# [15] = AUC (0 to infinity) in male ICR mouse at 62.5 mg/kg, ip measured after 24 hrs by LC-MS/MS analysis; assay type: ADME, organism-based; details: in vivo
# [16] = Bioavailability in male ICR mouse at 62.5 mg/kg, ip measured after 24 hrs by LC-MS/MS analysis; assay type: ADME, organism-based; details: in vivo
# HOS-TE85 [17] = experiment: Antitumor activity against human MNNG/HOS cells xenografted in female BALB/c mouse assessed as tumor growth inhibition at 62.5 mg/kg, ip administered twice daily for 23 days relative to control; assay type: functional; details: HOS-TE85, 552 h, time 23 day, read-out: TGI
# HOS-TE85 [18] = experiment: Antitumor activity against human MNNG/HOS cells xenografted in female BALB/c mouse assessed as reduction in tumor volume at 62.5 mg/kg, ip administered twice daily for 23 days; assay type: functional, organism-based; details: time 23.0 day
# [19] = Toxicity in female BALB/c mouse xenografted with human MNNG/HOS cells assessed as effect on heart morphology at 62.5 mg/kg, ip administered twice daily for 23 days by Hematoxylin and Eosin staining based analysis; assay type: organism-based, HOS-TE85; details: in vivo, 552 h, time 23 day
# [20] = Toxicity in female BALB/c mouse xenografted with human MNNG/HOS cells assessed as effect on liver morphology at 62.5 mg/kg, ip administered twice daily for 23 days by Hematoxylin and Eosin staining based analysis; assay type: organism-based, HOS-TE85; details: in vivo, 552 h, time 23 day
# [21] = Toxicity in female BALB/c mouse xenografted with human MNNG/HOS cells assessed as effect on spleen morphology at 62.5 mg/kg, ip administered twice daily for 23 days by Hematoxylin and Eosin staining based analysis; assay type: organism-based, HOS-TE85; details: in vivo, 552 h, time 23 day
# [22] = Toxicity in female BALB/c mouse xenografted with human MNNG/HOS cells assessed as effect on kidney morphology at 62.5 mg/kg, ip administered twice daily for 23 days by Hematoxylin and Eosin staining based analysis; assay type: organism-based, HOS-TE85; details: in vivo, 552 h, time 23 day
# [23] = Toxicity in female BALB/c mouse xenografted with human MNNG/HOS cells assessed as effect on heart weight at 62.5 mg/kg, ip administered twice daily for 23 days; assay type: organism-based, HOS-TE85; details: in vivo, 552 h, time 23 day
# [24] = Toxicity in female BALB/c mouse xenografted with human MNNG/HOS cells assessed as effect on liver weight at 62.5 mg/kg, ip administered twice daily for 23 days; assay type: organism-based, HOS-TE85; details: in vivo, 552 h, time 23 day
# [25] = Toxicity in female BALB/c mouse xenografted with human MNNG/HOS cells assessed as effect on spleen weight at 62.5 mg/kg, ip administered twice daily for 23 days; assay type: organism-based, HOS-TE85; details: in vivo, 552 h, time 23 day
# [26] = Toxicity in female BALB/c mouse xenografted with human MNNG/HOS cells assessed as effect on kidney weight at 62.5 mg/kg, ip administered twice daily for 23 days; assay type: organism-based, HOS-TE85; details: in vivo, 552 h, time 23 day
# HOS-TE85 [27] = experiment: Induction of cell cycle arrest in human MNNG/HOS cells incubated for 24 hrs bby PI/RNase A staining based analysis; assay type: functional
# HOS-TE85 [28] = experiment: Induction of apoptosis in human MNNG/HOS cells at 0.11 to 0.44 uM incubated for 24 hrs by Annexin V-FITC/PI staining based analysis; assay type: functional, cell-based; details: dose 0.11-0.44 µM
# HOS-TE85 [29] = experiment: Induction of apoptosis in human MNNG/HOS cells assessed as effect on Bcl-2 level incubated for 24 hrs by Western blot analysis; assay type: functional, cell-based
# HOS-TE85 [30] = experiment: Induction of apoptosis in human MNNG/HOS cells assessed as effect on Bax level incubated for 24 hrs by Western blot analysis; assay type: functional, cell-based
# HOS-TE85 [31] = experiment: Induction of apoptosis in human MNNG/HOS cells assessed as effect on caspase-3 level incubated for 24 hrs by Western blot analysis; assay type: functional, cell-based
# HOS-TE85 [32] = experiment: Inhibition of p53 protein expression in human MNNG/HOS cells incubated for 24 hrs by Western blot analysis; assay type: functional, cell-based
# HOS-TE85 [33] = experiment: Inhibition of MYOF protein expression in human MNNG/HOS cells incubated for 24 hrs by Western blot analysis; assay type: functional, cell-based
# HOS-TE85 [34] = experiment: Effect on DDX5 protein expression in human MNNG/HOS cells by ABPP assay; assay type: functional, cell-based
# HOS-TE85 [35] = experiment: Antiproliferative activity against human MNNG/HOS cells transfected with DDX5 shRNA assessed as inhibition of cell growth incubated for 72 hrs by CCK8 assay; assay type: functional, cell-based; details: HOS-TE85, 72 h
structure (smiles),measurement,setting,value
COCCCCNC(=O)c1cccc(C2N(c3ncccc3OC)C(=O)CS2(=O)=O)n1 (racemic),pIC50,HOS-TE85 [1],6.66
same,half-life at 0.1 µM,[2],2.6 h
same,bioavailability at 0.1 µM,[3],59.3%
same,half-life at 0.1 µM,[4],1.23 h
same,pIC50,143B,6.53
same,pIC50,SAOS-2,6.37
same,pIC50,SJSA-1,6.52
same,pIC50,MGC-803,6.40
same,pIC50,MG-63,5.96
same,pIC50,A549,5.72
same,pIC50,[5],5.67
same,pIC50,PC-3,5.37
same,Ratio IC50,HOS-TE85 [6],~20
same,inhibition,HOS-TE85 [7],Dose-Dependent Effect
same,inhibition,HOS-TE85 [8],Active
same,clearance,[9],126 mL/min/kg
same,Cmax,[10],5420 ng/mL
same,half-life,[11],0.222 h
same,AUC(0-inf),[12],1660 ng·h/mL
same,Cmax,[13],78.3 ng/mL
same,half-life,[14],1.53 h
same,AUC(0-inf),[15],9560 ng·h/mL
same,bioavailability,[16],115%
same,inhibition in vivo at 62.5 mg/kg,HOS-TE85 [17],44.6%
same,Activity,HOS-TE85 [18],Active
same,Activity,[19],Non-Toxic
same,Activity,[20],Non-Toxic
same,Activity,[21],Non-Toxic
same,Activity,[22],Non-Toxic
same,Activity,[23],Non-Toxic
same,Activity,[24],Non-Toxic
same,Activity,[25],Non-Toxic
same,Activity,[26],Non-Toxic
same,Activity,HOS-TE85 [27],inactive
same,Activity,HOS-TE85 [28],inactive
same,Activity,HOS-TE85 [29],inactive
same,Activity,HOS-TE85 [30],inactive
same,Activity,HOS-TE85 [31],inactive
same,inhibition,HOS-TE85 [32],inactive
same,inhibition,HOS-TE85 [33],inactive
same,Activity,HOS-TE85 [34],inactive
same,pIC50,HOS-TE85 [35],6.56
